Measurements: ChEMBL document CHEMBL5325417, “Dual function of protein phosphatase 5 (PPP5C): An emerging therapeutic target for drug discovery” (Eur J Med Chem, 2023)
Positions count from the first letter of the chain named. Starred links: 1 amine or outer side, 2 acyl side, 3 side chain; linkers in the order of their positions; H or OH if unused. Positions of bridges follow the written chain, without caps; N, C: chain ends. Non-standard residues stand in square brackets, D forms with d. Residues, ends and D or L forms follow the SMILES beside them. Adda = CO[C@@H](Cc1ccccc1)[C@@H](C)/C=C(C)/C=C/[C@H](N[*:1])[C@H](C)C(=O)[*:2]; dAsp(3S-Me) = C[C@H](C(=O)[*:3])[C@@H](N[*:1])C(=O)[*:2]; d(γGlu) = O=C(O)[C@@H](CCC(=O)[*:2])N[*:1]; NMeDha = C=C(NC)C(=O)O

Tests used:
[1] = molecular target: T1, Serine/threonine-protein phosphatase 5 (Homo sapiens, UniProt P53041); test: Activation of PPP5C (unknown origin) TPR domain
T1 sequence (P53041 whole entry): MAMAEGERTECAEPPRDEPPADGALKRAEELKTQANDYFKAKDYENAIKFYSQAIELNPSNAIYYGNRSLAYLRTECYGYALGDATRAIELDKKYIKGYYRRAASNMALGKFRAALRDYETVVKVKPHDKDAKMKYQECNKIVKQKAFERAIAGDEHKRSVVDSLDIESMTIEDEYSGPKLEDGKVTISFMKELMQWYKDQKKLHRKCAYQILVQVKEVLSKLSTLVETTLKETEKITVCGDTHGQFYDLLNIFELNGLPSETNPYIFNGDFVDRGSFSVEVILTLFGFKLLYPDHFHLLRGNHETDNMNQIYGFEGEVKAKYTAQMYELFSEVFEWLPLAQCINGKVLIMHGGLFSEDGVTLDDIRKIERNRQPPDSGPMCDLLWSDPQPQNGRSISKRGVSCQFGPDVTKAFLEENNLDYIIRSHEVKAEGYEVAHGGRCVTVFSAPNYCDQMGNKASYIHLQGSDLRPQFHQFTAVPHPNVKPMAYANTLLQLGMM

[2] = molecular target: T1, Serine/threonine-protein phosphatase 5; test: Inhibition of PPP5C (unknown origin) phosphatase domain
[3] = molecular target: T1, Serine/threonine-protein phosphatase 5; test: Inhibition of MBP fused recombinant human PPP5C phosphatase domain expressed in Escherichia coli using DiFMUP as substrate
[4] = Inhibition of bovine blood PP2A phosphatase domain expressed in Escherichia coli using DiFMUP as substrate; assay type: tissue-based, Bos taurus
[5] = Inhibition of PP1 (unknown origin) phosphatase domain; design: species or system Homo sapiens
[6] = molecular target: T2, Serine/threonine-protein phosphatase 5 (Rattus norvegicus) (UniProt P53042); test: Activation of rat PPP5C (428 to 430 residues) phosphatase domain expressed in Escherichia coli BL21-codonplus (DE3)-RIL cells using para-nitrophenyl phosphate as substrate assessed as fold increase at 10^5 nM; conditions: filed as activator, dose 1.0 10^5nM
T2 sequence (whole entry): T1 sequence (P53041 whole entry) with D22E, A24T, H128N, N140S, K158R, S189T, E193D, S221C, I397V, N419Q

[7] = molecular target: T3, Serine/threonine-protein phosphatase 5 (Rattus norvegicus, UniProt P53042); test: Binding affinity to rat PPP5C (428 to 430 residues) phosphatase domain expressed in Escherichia coli BL21-codonplus (DE3)-RIL cells using para-nitrophenyl phosphate as substrate assessed as dissociation constant at 10^5 nM
T3 sequence (P53042 whole entry): T1 sequence (P53041 whole entry) with D22E, A24T, H128N, N140S, K158R, S189T, E193D, S221C, I397V, N419Q

[8] = molecular target: T2, Serine/threonine-protein phosphatase 5 (Rattus norvegicus); test: Activation of rat PPP5C (428 to 430 residues) phosphatase domain expressed in Escherichia coli BL21-codonplus (DE3)-RIL cells using para-nitrophenyl phosphate as substrate assessed as fold change in maximum efficacy at 10^5 nM; conditions: filed as activator, dose 1.0 10^5nM
[9] = molecular target: T4, Serine/threonine-protein phosphatase 5 (Homo sapiens) (UniProt P53041); test: Inhibition of N-terminally 6His-tagged full-length human PPP5C (1 to 499 residues) TPR domain expressed in Escherichia coli Rosetta gami2 (de3) pLysS cells using pNPP as substrate at 10^6 nM preincubated for 10 mins followed by substrate addition and measured for 60 mins relative to control; conditions: dose 1.0 10^6nM, time 70.0 min
T4 sequence (whole entry): T1 sequence (P53041 whole entry)

[10] = Inhibition of PP4 (unknown origin) phosphatase domain using phosphohistone as substrate; design: species or system Homo sapiens
[11] = Inhibition of PP2A (unknown origin) phosphatase domain; design: species or system Homo sapiens
[12] = Inhibition of PP6 (unknown origin) phosphatase domain; design: species or system Homo sapiens
[13] = Inhibition of PP3 (unknown origin) phosphatase domain; design: species or system Homo sapiens
[14] = molecular target: T4, Serine/threonine-protein phosphatase 5 (Homo sapiens); test: Activation of PPP5C (unknown origin) TPR domain assessed as fold change; conditions: filed as activator
[15] = Inhibition of PP2A (unknown origin) phosphatase domain using phosphohistone as substrate; design: species or system Homo sapiens
[16] = molecular target: T4, Serine/threonine-protein phosphatase 5 (Homo sapiens); test: Activation of Histidine-tagged human PPP5C TPR domain assessed as fold change at 10^5 nM; conditions: filed as activator, dose 1.0 10^5nM
[17] = molecular target: T5, Serine/threonine-protein phosphatase with EF-hands 1 (Homo sapiens, UniProt O14829); test: Inhibition of PP7 (unknown origin) phosphatase domain
T5 sequence (O14829 whole entry): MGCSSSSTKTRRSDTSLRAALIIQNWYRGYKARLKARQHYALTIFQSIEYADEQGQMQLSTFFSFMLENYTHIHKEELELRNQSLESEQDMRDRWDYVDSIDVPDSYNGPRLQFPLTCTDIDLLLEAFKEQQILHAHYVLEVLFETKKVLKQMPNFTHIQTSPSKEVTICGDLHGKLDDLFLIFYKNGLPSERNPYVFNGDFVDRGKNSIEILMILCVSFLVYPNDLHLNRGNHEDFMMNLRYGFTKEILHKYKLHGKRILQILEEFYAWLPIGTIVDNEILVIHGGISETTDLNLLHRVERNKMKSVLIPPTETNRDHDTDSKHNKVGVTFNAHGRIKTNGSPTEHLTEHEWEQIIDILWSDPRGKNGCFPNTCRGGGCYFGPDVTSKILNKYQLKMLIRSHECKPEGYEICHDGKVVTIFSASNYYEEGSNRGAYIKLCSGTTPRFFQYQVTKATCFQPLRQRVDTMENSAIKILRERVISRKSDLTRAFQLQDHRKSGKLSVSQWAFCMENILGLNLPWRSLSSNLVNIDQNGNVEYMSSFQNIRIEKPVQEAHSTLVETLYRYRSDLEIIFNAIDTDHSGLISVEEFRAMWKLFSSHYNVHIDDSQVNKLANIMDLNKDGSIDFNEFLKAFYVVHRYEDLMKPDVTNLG

[18] = molecular target: T6, Serine/threonine-protein phosphatase 4 catalytic subunit (Homo sapiens, UniProt P60510); test: Inhibition of PP4 (unknown origin) phosphatase domain
T6 sequence (P60510 whole entry): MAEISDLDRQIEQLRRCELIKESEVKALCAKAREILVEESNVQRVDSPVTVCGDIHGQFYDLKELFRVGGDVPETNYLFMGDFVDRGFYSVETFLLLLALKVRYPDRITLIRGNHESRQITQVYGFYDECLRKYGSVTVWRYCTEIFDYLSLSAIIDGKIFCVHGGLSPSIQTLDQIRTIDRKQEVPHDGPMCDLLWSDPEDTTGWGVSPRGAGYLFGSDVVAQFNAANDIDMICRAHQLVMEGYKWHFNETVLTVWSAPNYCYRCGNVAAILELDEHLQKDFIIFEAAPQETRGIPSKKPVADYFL

CC(C)(COP(=O)(O)OP(=O)(O)OC[C@H]1O[C@@H](n2cnc3c(N)ncnc32)[C@H](O)[C@@H]1OP(=O)(O)O)[C@@H](O)C(=O)NCCC(=O)NCCS [COENZYME_A]
EC50 [1]: 1000 nM

O=C1OC(=O)C2C3CCC(O3)C12 (stereo not given) [DEMETHYL-CANTHARIDIN]
IC50 [2]: 1000 nM

CN1CCN(C(=O)[C@H]2[C@@H](C(=O)O)[C@@H]3CC[C@H]2O3)CC1
IC50 [3]: 1800 nM | IC50 [4]: 400 nM | IC50 [5]: 2.4 nM

O=C(O)CCCCCCCCCCCC[C@H]1C=CCC1
EC50 [1]: 134000 nM

COc1ccc(-c2nc(Cc3ccc(Cl)cc3)no2)cc1OC
fold change (FC) [6]: 3.2 | Kd [7]: 7800 nM | fold change (FC) [8]: 3.9

Nc1ccc(-c2nc3ccc(-c4nc5ccc(N)cc5[nH]4)cc3[nH]2)cc1
inhibition [9]: > 40%

C[C@@]12C(=O)OC(=O)[C@]1(C)[C@H]1CC[C@@H]2O1 [CANTHARIDIN]
IC50 [10]: 50 nM | IC50 [11]: 160 nM | IC50 [12]: 8000 nM | IC50 [5]: 1700 nM | IC50 [13]: > 500000 nM

CCCCC/C=C\C/C=C\C/C=C\C/C=C\CCCC(=O)O
fold change (FC) [14]: 1.5

C=C1C(=O)N[C@H](C)C(=O)N[C@@H](CC(C)C)C(=O)N[C@@H](C(=O)O)[C@H](C)C(=O)N[C@@H](CCCNC(=N)N)C(=O)N[C@@H](/C=C/C(C)=C/[C@H](C)[C@H](Cc2ccccc2)OC)[C@H](C)C(=O)N[C@@H](C(=O)O)CCC(=O)N1C [MICROCYSTIN-LR] (R[Adda][d(γGlu)][NMeDha][dA]L[dAsp(3S-Me)]-OH; lactam N-7)
IC50 [15]: 0.04 nM | IC50 [10]: 0.15 nM | IC50 [5]: 1.7 nM | IC50 [13]: 200 nM

Cc1ccc(C(=O)Nc2ccc(S(=O)(=O)O)c3cc(S(=O)(=O)O)cc(S(=O)(=O)O)c23)cc1NC(=O)c1cccc(NC(=O)Nc2cccc(C(=O)Nc3cc(C(=O)Nc4ccc(S(=O)(=O)O)c5cc(S(=O)(=O)O)cc(S(=O)(=O)O)c45)ccc3C)c2)c1
fold change (FC) [16]: 4

CCCCO[C@H]1C[C@@H]2O[C@H]1[C@@H](C(=O)O)[C@H]2C(=O)O
IC50 [2]: 700 nM

C[C@@](O)(/C=C/[C@H]1CC=CC(=O)O1)[C@@H](C[C@@H](O)\C=C/C=C\C=C\CO)OP(=O)(O)O [FOSTRIECIN]
IC50 [17]: > 1000 nM | IC50 [2]: > 1000 nM | IC50 [18]: 3 nM | IC50 [11]: 1.5 nM | IC50 [12]: 10 nM | IC50 [5]: > 100000 nM | IC50 [13]: > 100000 nM

C[C@H]1C[C@@H]2O[C@H]1[C@@H](C(=O)O)[C@H]2C(=O)O
IC50 [2]: 1000 nM
